“Also recorded” adds a separate entry of the source. Where two headings read alike, the source gives them in different places. Where a SMILES comes first, the peptide text is derived from it.
Columns and labels:
resistance arteries [1] = assay: Wire myography: relaxation to dilator agonists after preconstriction with U46619 (Example 2); type: cell-based, human; conditions: median; for IC50 / Emax: Homo sapiens; for Emax: read-out: Emax (maximum relaxation after preconstriction with U46619)
[2] = system: small peripheral resistance vessels; assay: Wire myography by rs9349379 genotype: vasodilator response to ACh; type: cell-based; conditions: Homo sapiens, 95% CI; for EC50: read-out: ACh pEC50 (converted)
ETA receptor [3] = target: T1, ETA receptor (Homo sapiens, UniProt P25101); assay: ET-1 cumulative concentration response curves after antagonist preincubation, Schild plot pA2 (Example 3); type: cell-based; conditions: microvessels pre-treated with antagonist
T1 construct: Small peripheral resistance vessels (<400 μm) were carefully dissected from fresh biopsies using a light microscope; from tissue; host or cells: small peripheral resistance arteries from gluteal skin fat biopsies of angina patients
T1 sequence (P25101 21-427): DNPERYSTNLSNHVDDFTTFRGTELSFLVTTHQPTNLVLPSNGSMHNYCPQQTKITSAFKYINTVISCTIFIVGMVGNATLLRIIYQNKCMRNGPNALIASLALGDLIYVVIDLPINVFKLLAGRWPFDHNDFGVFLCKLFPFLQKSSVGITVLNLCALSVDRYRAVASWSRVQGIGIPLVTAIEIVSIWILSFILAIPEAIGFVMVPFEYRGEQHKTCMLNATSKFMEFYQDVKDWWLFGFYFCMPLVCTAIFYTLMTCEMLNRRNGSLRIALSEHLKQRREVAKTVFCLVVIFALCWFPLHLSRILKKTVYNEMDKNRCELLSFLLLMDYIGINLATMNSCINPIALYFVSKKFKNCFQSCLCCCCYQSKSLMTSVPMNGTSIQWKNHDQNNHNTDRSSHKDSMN

ETA receptor [4] = target: T1, ETA receptor; assay: Paired ET-1 CCRCs with and without ETA antagonist, pKB by Schild regression (Examples 4 and 5); type: cell-based; conditions: for Kb: pKB
Description: (§1) Ex vivo pharmacological assessment of peripheral vascular function was performed on patients who volunteered to undergo a gluteal skin fat biopsy within 4 weeks of the invasive coronary function assessment. The biopsy was obtained under sterile conditions using local anaesthesia with lidocaine (2%). Small peripheral resistance vessels (<400 μm) were carefully dissected from fresh biopsies using a light microscope. About 2 mm length vessels were mounted on 40-μm stainless steel wires for isometric myography in multi-channel myograph chambers (DMT, Denmark) filled with physiological saline solution. […] This vascular biology sub-study was an extension of our work in INOCA subjects that was previously published in this journal.^31A The detailed methods are described in the Supplementary material online, Appendix.
(§2) The peripheral vascular sensitivity to ET-1 (pEC50) and maximum vasoconstriction to ET-1 (Eumax) were determined. For the antagonist studies, the affinity (KB) of BQ123 was first determined in paired vessels from individuals and calculated using Schild regression. The pKB (−log10 KB) values were compared between each genotype as an indicator of whether or not patients of different genotypes are likely to respond equally well to an ETA antagonist used clinically.

resistance arteries [5] = assay: Wire myography: contractile response to constrictor agonists, relative to KPSS (Example 2); type: cell-based, human; conditions: for Emax (percentage of maximum response to KPSS solution) / pEC50: median
[6] = system: small peripheral resistance vessels; assay: Wire myography by rs9349379 genotype: vasoconstriction to ET-1; type: cell-based, human; conditions: 95% CI
Description: as §1, §2

[7] = system: human mammary resistance arteries; conditions: compared with bosentan; cited from earlier work
[8] = GTN half-life and remaining dose; conditions: human, in vivo, other: intra-arterial; after 10 min; read-out: share of the dose bioavailable
[9] = system: coronary microvascular endothelial function; conditions: 10 mg PO daily for 6 months; IC-ACh; cited from earlier work
[10] = subjects with low myocardial perfusion homogeneity; cited from earlier work
[11] = cited from earlier work
[12] = system: small peripheral resistance arteries; assay: Reversal of an established ET-1-mediated vessel constriction, wire myography; type: cell-based, human; conditions: clinically relevant concentrations

## CC(=O)OCC[N+](C)(C)C [ACh, Acetylcholine]
Resistance arteries [1]; MVA patients
  IC50: 79.4 nM
  Emax: 77.6%
Resistance arteries [1]; VSA patients
  IC50: 79.4 nM
  Emax: 79%
Resistance arteries [1]; control subjects
  IC50: 50.1 nM
  Emax: 98.7%
  Emax (maximum relaxation after preconstriction with U46619): 98%
[2]; genotype AA
  Emax: 77.7%
  EC50: 52.5 nM
[2]; genotype AG
  Emax: 80.2%
  EC50: 55 nM
[2]; genotype GG
  Emax: 92.5%
  EC50: 110 nM

## CC(C)C[C@@H]1NC(=O)[C@@H](C(C)C)NC(=O)[C@@H]2CCCN2C(=O)[C@@H](CC(=O)O)NC(=O)[C@@H](Cc2c[nH]c3ccccc23)NC1=O [BQ123] (HELM PEPTIDE1{L.[dW].[dD].P.[dV]}$PEPTIDE1,PEPTIDE1,1:R1-5:R2$$$V2.0)
ETA receptor [3]
  effect on the ET-1 constrictor response (shift of ET-1 CCRC): also inhibits the ET-1 response; also recorded: an effect comparable to that of zibotentan
ETA receptor [4]; all genotype groups
  effect on the ET-1 CCRC and constrictor responses: parallel rightward shift of the CCRC to ET-1 in all arteries; also recorded: fully blocked the constrictor responses in all of the groups
ETA receptor [4]; all genotypes pooled, mean (95% CI)
  Kb: 29.5 nM
ETA receptor [4]; rs9349379 genotype AA, ±SEM
  Kb: 85.1 nM
ETA receptor [4]; rs9349379 genotype AG, ±SEM
  Kb: 16.2 nM
ETA receptor [4]; rs9349379 genotype GG, ±SEM
  Kb: 38.9 nM

## CCCC[C@@H](NC(=O)[C@@H](Cc1cn(C(=O)OC)c2ccccc12)NC(=O)[C@H](CC(C)(C)C)NC(=O)N1[C@H](C)CCC[C@@H]1C)C(=O)O [BQ788]
ETA receptor [3]
  effect on the ET-1 constrictor response (shift of ET-1 CCRC): only minimal shift in the ET-1 response; also recorded: negligible effect on the ET-1 constrictor response

## CC[C@H](C)[C@H](NC(=O)[C@H](CC(=O)O)NC(=O)[C@H](CC(C)C)NC(=O)[C@H](Cc1c[nH]cn1)NC(=O)[C@@H]1CSSC[C@H](N)C(=O)N[C@@H](CO)C(=O)N[C@H]2CSSC[C@H](NC(=O)[C@H](CCC(=O)O)NC(=O)[C@H](CCCCN)NC(=O)[C@H](CC(=O)O)NC(=O)[C@H](CCSC)NC(=O)[C@H](CC(C)C)NC(=O)[C@H](CO)NC(=O)[C@H](CO)NC2=O)C(=O)N[C@@H](C(C)C)C(=O)N[C@@H](Cc2ccc(O)cc2)C(=O)N[C@@H](Cc2ccccc2)C(=O)N1)C(=O)N[C@H](C(=O)N[C@@H](Cc1c[nH]c2ccccc12)C(=O)O)[C@@H](C)CC [ET-1]
Resistance arteries [5]; MVA patients
  Emax (percentage of maximum response to KPSS solution): 121%
  pEC50: 9.6
Resistance arteries [5]; VSA patients
  Emax (percentage of maximum response to KPSS solution): 125%
  pEC50: 9.5
Resistance arteries [5]; all groups
  sensitivity of resistance arteries to constrictor effects of ET-1 compared with U46619: around 50 fold
Resistance arteries [5]; control subjects
  Emax (percentage of maximum response to KPSS solution): 100%
  pEC50: 9.3
[6]; genotype AA
  ET-1 Emax (maximum vasoconstriction): 122.3%
  ET-1 pEC50: 9.34
[6]; genotype AG
  ET-1 Emax (maximum vasoconstriction): 115.5%
  ET-1 pEC50: 9.45
[6]; genotype GG
  ET-1 Emax (maximum vasoconstriction): 129.7%
  ET-1 pEC50: 9.32

## CC(C)C[C@H](NC(=O)N1CCCCCC1)C(=O)N[C@H](Cc1cn(C)c2ccccc12)C(=O)N[C@H](Cc1ccccn1)C(=O)O [FR139317]
[7]
  blocking of ET-1 induced contractions: less effective than the dual ETAR/ETBR antagonist bosentan

## O=[N+]([O-])OCC(CO[N+](=O)[O-])O[N+](=O)[O-] [GTN, glyceryl trinitrate]
[8]
  bioavailability at 10 min: 3%

## CCCCC[C@H](O)/C=C/[C@@H]1[C@@H](C/C=C\CCCC(=O)O)[C@H]2CO[C@@H]1C2 [U46619]
Resistance arteries [5]; MVA patients
  Emax (percentage of maximum response to KPSS solution): 143%
  pEC50: 8.0
Resistance arteries [5]; VSA patients
  Emax (percentage of maximum response to KPSS solution): 141%
  pEC50: 7.5
Resistance arteries [5]; control subjects
  Emax (percentage of maximum response to KPSS solution): 109%
  pEC50: 7.50

## CCCCN(CCCC)C(=O)CN1C[C@H](c2ccc3c(c2)OCO3)[C@@H](C(=O)O)[C@@H]1c1ccc(OC)cc1 [atrasentan]
[9]
  coronary microvascular endothelial function: improved coronary microvascular endothelial function

## COc1cc(OC)nc(O[C@H](C(=O)O)C(OC)(c2ccccc2)c2ccccc2)n1 [darusentan]
[10]
  flow homogeneity: increases flow homogeneity

## Cc1cc2c(cc1CC(=O)c1sccc1S(=O)(=O)Nc1onc(C)c1Cl)OCO2 [sitaxentan]
[11]; HFpEF patients, compared to placebo
  exercise time: increase in exercise time compared to placebo
[11]; in vivo
  hepatotoxicity: withdrawn from development owing to hepatotoxicity

## COc1nc(C)cnc1NS(=O)(=O)c1cccnc1-c1ccc(-c2nnco2)cc1 [zibotentan, N-(3-Methoxy-5-methylpyrazin-2-yl)-2-[4-(1,3,4-oxadiazol-2-yl)phenyl]pyridine-3-sulfonamide]
[12]
  reversal or inhibition of an established constrictor response to ET-1: concentration-dependent inhibition of an established constrictor response to ET-1; also recorded: fully reversed an established endothelin-1 vasoconstriction
[12]; listed as Zibotentan
  reversal or inhibition of an established constrictor response to ET-1: concentration-dependent inhibition of an established constrictor response to ET-1; also recorded: reversed ET-1-induced vasoconstriction independently of G allele status; also recorded: reversed an established ET-1-mediated vasoconstriction; also recorded: rapidly and fully reversed the established endothelin-1 constrictor response
